Reference: patent publication EP1149076B1, “O-THIOCARBAMOYL-AMINOALKANOL COMPOUNDS, THEIR PHARMACEUTICALLY ACCEPTABLE SALTS AND PROCESS FOR PREPARING THE SAME” (SK Corporation, priority 1999, dated 2000)

Experiments:
[1] = tested on: mice (CD-1 strain); experiment: Maximal ElectroShock (MES) test; assay type: in vivo; settings: for ED50: Mus musculus
[2] = tested on: mice (CD-1 strain); experiment: Forced Swimming Test; assay type: in vivo; settings: duration of immobility, one hour prior to test, 15-minute test period
Experimental: The therapeutic use of the compounds claimed in the present invention as antidepressants has been proven by the "Forced Swimming Test", a well known pharmacological screening methods for depression and the results are shown in the following Table II.
The procedure described by Porsolt et al., (1997) was used. Test compound was administered p.o. and i.p. to mice (CD-1 strain), one hour prior to the animals being immersed in a 1500mL glass beaker (16.5cm deep, 13.0cm diameter) filled with water (20 ∼ 23°C) to about 5cm from the top. Mice were kept in the water for a period of 15 minutes and the duration of immobility observed within the 15-minute test period was recorded. A mouse was judged to be immobile if it floated motionlessly in the water making only those movements necessary to keep its head above the water.

`CNC(=S)OC[C@@H](N)Cc1ccccc1` showed an ED50 ([1]; ip, 0.5h) of 41.8 mg/kg and an ED50 ([1]; po, 0.5h) of 152 mg/kg.

In the case of `NC(=S)OCC(N)Cc1ccc(Cl)cc1` (racemic), the “Inhibition (reduction,%)” value ([2]; i.p. (30mg/kg)) is reported as 30.6% and the “Inhibition (reduction,%)” value ([2]; p.o. (30mg/kg)) is reported as 38.1%.

For `NC(=S)OC[C@H](N)Cc1ccccc1` [[drawing] the 2nd table, row 2], the “Inhibition (reduction,%)” value ([2]; i.p. (30mg/kg)) was 41.6%.

In the case of `CNC(=S)OC[C@H](N)Cc1ccccc1`, the ED50 ([1]; ip, 1h) is reported as 20.9 mg/kg and the “MES (po, 30mg/kg)” value ([1]; po, 30mg/kg, 0.5h, mice protected / mice tested) is reported as 3/3 (0.5h).

For `CN(C)C(=S)OC[C@H](N)Cc1ccc(Cl)c(Cl)c1` [[drawing] the 3rd table, row 7], the “MES (ip, 30mg/kg)” value ([1]; ip, 30mg/kg, 4.0h, mice protected / mice tested) was 1/3 (4.0h).

In the case of `CN(C)C(=S)OC[C@H](N)Cc1ccc(Cl)c(Cl)c1` [[drawing] the 2nd table, row 12], the “Inhibition (reduction,%)” value ([2]; i.p. (30mg/kg)) is reported as 54.9% and the “Inhibition (reduction,%)” value ([2]; p.o. (30mg/kg)) is reported as 50.8%.

For `CNC(=S)OCC(CN)c1ccccc1` (stereo not drawn), the “Inhibition (reduction,%)” value ([2]; i.p. (30mg/kg)) was 30.5% and the “Inhibition (reduction,%)” value ([2]; p.o. (30mg/kg)) was 25.6%.

With `NC(=S)OC[C@@H](N)Cc1ccccc1` the “Inhibition (reduction,%)” value ([2]; i.p. (30mg/kg)) was 51.2%.

In the case of `CNC(=S)OCCC(N)c1ccccc1` (stereo not drawn), the “Inhibition (reduction,%)” value ([2]; i.p. (30mg/kg)) is reported as 44.2% and the “Inhibition (reduction,%)” value ([2]; p.o. (30mg/kg)) is reported as 29.2%.

`CNC(=S)OCC(N)Cc1ccccc1F` (racemic) gave an ED50 ([1]; ip, 1h) of 24.7 mg/kg.

`NC(=S)OC[C@H](N)Cc1ccccc1` [[drawing] the 3rd table, row 2] was tested, and the ED50 ([1]; ip, 0.5h) was 29 mg/kg and the ED50 ([1]; po, 0.5h) was 189 mg/kg.
